Experimental data taken from patent US20240287063A1, “METHIONINE ADENOSYLTRANSFERASE 2A INHIBITOR” (NANJING CHIA TAI TIANQING PHARMACEUTICAL CO., LTD., priority 2021, published 2024).
Counter-ions that a name gives are not always drawn.

Legend:
MAT2A enzyme = biological target: T1, MAT2A enzyme (Homo sapiens, UniProt P31153); assay: Enzymatic testing method for MAT2A (Biomol Green, OD620); format: biochemical; conditions: score by IC50 for inhibiting MAT2A; read-out: MAT2A inhibition score
T1 construct: purchased BPS 71401
T1 sequence (P31153 whole entry): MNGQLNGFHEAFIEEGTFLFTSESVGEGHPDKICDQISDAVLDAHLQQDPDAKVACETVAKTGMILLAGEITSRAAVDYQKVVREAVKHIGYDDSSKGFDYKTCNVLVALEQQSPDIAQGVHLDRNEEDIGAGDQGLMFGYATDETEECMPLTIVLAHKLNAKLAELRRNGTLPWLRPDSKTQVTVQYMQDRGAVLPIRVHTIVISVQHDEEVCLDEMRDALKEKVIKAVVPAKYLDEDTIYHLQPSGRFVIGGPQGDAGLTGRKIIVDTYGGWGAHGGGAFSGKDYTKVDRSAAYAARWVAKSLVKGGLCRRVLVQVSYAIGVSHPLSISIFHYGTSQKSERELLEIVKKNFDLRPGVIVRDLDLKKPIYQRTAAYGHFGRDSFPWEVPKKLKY
Protocol: • a) A 5×MAT2A test buffer (250 mM Tris-HCl, pH 8.0; 250 mM KCl; 75 mM MgCl2; 0.025% BSA; 0.05% Brij35; 1.5 mM EDTA) was first prepared and partially diluted to 1× for later use; • b) Preparation and addition of MAT2A enzyme (BPS, 71401): the MAT2A enzyme was prepared into 3.674 ng/L by using the 1×MAT2A test buffer (1.67×, final concentration 2.20 ng/L), a BioTek (MultiFlo FX) automatic liquid separator was used, 15 μL of 1.67×MAT2A enzyme solution was added to compound test wells and negative control wells respectively, and 15 μL of 1×MAT2A test buffer was added to blank control wells; • c) Preparation and addition of a compound: a compound to be tested was diluted with DMSO from 10 mM stock solution to 100 μM, a positive drug AGI-24512 was diluted under the same conditions, and the diluted compound and positive drug were automatically sprayed into each well by using a Tecan compound titrator (D300e) according to preset concentration gradients, where the spray volume was little and negligible. The concentration gradient was initially 1 μM, the dilution was implemented by ½ log, and a total of 8 gradients were set. Centrifugation at 2500 rpm for 30 s and incubation at 25° C. for 30 min were performed; • d) Preparation of ATP: 10 mM ATP (Sigma, A7699) was diluted with 1×MAT2A test buffer to 700 μM for later use; • e) Preparation and addition of a substrate and ATP mixture: 5×MAT2A test buffer, 3 μL/well; 750 μM L-methionine (Adamas, 01100469), 2.5 μL/well; 700 μM ATP, 2.5 μL/well; and double distilled water, 2 μL/well. A total amount of required mixture was prepared according to the number of test wells, and 10 μL of the mixture was added to each well by using the BioTek (MultiFlo FX) automatic liquid separator, followed by centrifugation at 2500 rpm for 30 s and reaction at 25° C. for 150 min; • f) Addition of Biomol Green detection reagent: 50 μL of Biomol Green (Enzo, BML-AK111) was added to each well by using the BioTek (MultiFlo FX) automatic liquid separator, followed by centrifugation at 2500 rpm for 30 s and incubation at 25° C. for 20 minutes; • g) After the reaction, OD620 values were read by using a Perkin Elmer (Envision 2105) multifunctional plate reader.
A formula for calculating an inhibition rate was as follows: […]
Wherein, • % Inhibition: inhibition rate % • ODsample: OD620 value in a sample well; • ODmin: representing a mean OD620 value of blank control wells without the enzyme or compound to be tested; • ODmax: representing a mean OD620 value of negative control wells with the enzyme and without the compound.
Then a dose-effect curve log(inhibitor) vs. response-Variable slope was fitted by usingGraphPad Prism 5 software to obtain an IC50 value of compound for MAT2A enzyme inhibition.

HCT116 MTAP −/− cells = assay: Cell testing method: HCT116 MTAP-/- cell proliferation inhibition (CellTiter-Glo, 120 h); format: cell-based; conditions: Homo sapiens, HCT-116; score by IC50 for inhibiting HCT116 MTAP−/− cells
Protocol: HCT116 MTAP −/− cells (purchased from Horizon Discovery): human colorectal cancer cell lines with MTAP gene deletion were cultured in medium RPMI 1640+10% FBS (Fetal bovine serum). On day 0 of the experiment, the live cell density of the foregoing cells in logarithmic growth phase was adjusted to 5000 cells/ml, the cells were inoculated to a 96-well plate by an amount of 100 μl/well, and a blank group was set in parallel; and the inoculated cell plate was put into a 37° C., 5% CO2 incubator for overnight culture.
On day 1 of the experiment, the overnight cultured cell plate was taken out, the supernatant was discarded, 80 μl of serum-free RPMI 1640 medium was added to each well, and place the cells in an incubator for starvation cultivation for 4 h. The compound to be tested was dissolved in DMSO (dimethyl sulfoxide) to prepare a 10 mM compound stock solution. After starvation, the cell plate was taken out, and 80 μl of RPMI 1640+20% FBS medium was added to each well; the cell plate was placed on an automatic liquid dispenser D300e (Tecan), and a dosing program was set as follows: a maximum concentration of the compound to be tested was 30 μM, the compound was diluted with DMSO by a 3 times concentration gradient, there was a total of 10 concentrations, two duplicate wells were set for each concentration, and the DMSO final concentration in each well of the 96-well plate was 0.3%, v/v. The pre-prepared 10 mM stock solution of the compound to be tested was taken out, and the above dosing program was run for dosing. After the dosing was completed, the cell plate was placed in incubator and culture for 120 h.
On day 6 of the experiment, the cell plate was taken out, 50 μl of CellTiter-Go® (purchased from Promega) was added to each well, and fluorescence signal was measured on Envision (PerkinElmer) according to operation procedures in the manual.
A dose-effect curve: log(inhibitor) vs. response-Variable slope was fitted by using GraphPad Prism 5 software to obtain an IC50 value of the compound for inhibiting cell proliferation inhibition. A formula for calculating an inhibition rate was: […]
Wherein, • Signal value of tested compound: mean fluorescence signal of cells group+medium group+compound group; • Signal value of blank group: mean fluorescence signal of medium group; • Signal value of negative control group: mean fluorescence signal of cells group+medium group.

Row | IC50 (MAT2A enzyme) | IC50 (HCT116 MTAP −/− cells) | SMILES
1 | < 0.05 µM | < 0.15 µM | O=c1c(-c2ccc3c(c2)OCO3)cn2ccc(C3CC3)nc2c1-c1ccc2c(c1)OCO2 [Example 28, 7,9-bis(2H-1,3-benzodioxol-5-yl)-2-cyclopropyl-8H-pyrido[1,2-a]pyrimidin-8-one]
2 | 0.05 to 0.2 µM | > 1 µM | O=c1c(-c2ccc(OC(F)F)cc2)cn2ccc(C3CC3)nc2c1-c1ccc2c(c1)OC(F)(F)O2 [Example 27, 2-cyclopropyl-9-(2,2-difluoro-1,3-benzodioxol-5-yl)-7-[4-(difluoromethoxy)phenyl]-8H-pyrido[1,2-a]pyrimidin-8-one]
3 | < 0.05 µM | < 0.15 µM | CN1Cc2c3cc(-c4cn5ccc(C6CC6)nc5c(-c5ccc(OC(F)F)cc5)c4=O)ccc3nn2CC12CC2 [Example 38, 2-cyclopropyl-9-(4-(difluoromethoxy)phenyl)-7-(2′-methyl-1′,2′-dihydro-4′H-spiro[cyclopropane-1,3′-pyrazino[1,2-b]indazol]-9′-yl)-8H-pyrido[1,2-a]pyrimidin-8-one]
4 | < 0.05 µM | < 0.15 µM | Cn1cc2cc(-c3cn4ccc(NCC(F)(F)F)nc4c(-c4ccc(OC(F)F)cc4)c3=O)ccc2n1 [Example 9, 9-[4-(difluoromethoxy)phenyl]-7-(2-methyl-2H-indazol-5-yl)-2-[(2,2,2-trifluoroethyl)amino]-8H-pyrido[1,2-a]pyrimidin-8-one]
5 | < 0.05 µM | < 0.15 µM | O=c1c(-c2ccc3nn4c(c3c2)CNC2(CC2)C4)cn2ccc(C3CC3)nc2c1-c1ccc(OC(F)F)cc1 [Example 39, 2-cyclopropyl-9-(4-(difluoromethoxy)phenyl)-7-(1′,2′-dihydro-4′H-spiro[cyclopropane-1,3′-pyrazino[1,2-b]indazol]-9′-yl)-8H-pyrido[1,2-a]pyrimidin-8-one]
6 | < 0.05 µM | 0.15 to 0.4 µM | Cn1nc2ccc(-c3cn4ccc(C5CC5)cc4c(-c4ccc5c(c4)OC(F)(F)O5)c3=O)cc2c1N [Example 6, 3-(3-amino-2-methyl-2H-indazol-5-yl)-8-cyclopropyl-1-(2,2-difluoro-1,3-benzodioxol-5-yl) quinolizin-2-one hydrochloride]
7 | < 0.05 µM | < 0.15 µM | O=c1c(-c2ccc(OC(F)F)cc2)cn2ccc(C3CC3)cc2c1-c1ccc(OC(F)F)cc1 [Example 3, 8-cyclopropyl-1,3-bis(4-(difluoromethoxy)phenyl)-2H-quinolizin-2-one]
8 | < 0.05 µM | < 0.15 µM | Cn1cc2cc(-c3cn4ccc(C5CC5)nc4c(-c4ccc5c(c4)OC(F)(F)O5)c3=O)ccc2n1 [Example 26, 2-cyclopropyl-9-(2,2-difluoro-1,3-benzodioxol-5-yl)-7-(2-methyl-2H-indazol-5-yl)-8H-pyrido[1,2-a]pyrimidin-8-one]
